Experimental data taken from US8242157B2, “Benzimidazole derivatives useful as TRPM8 channel modulators” (Janssen Pharmaceutica NV, priority 2009, dated 2012).
Where “and” joins values, the source holds several entries; their conditions need not be identical. Equal values may be shown once. Read-outs that look alike come from different tables or passages of the source.

Columns and labels:
canine TRPM8 = molecular target: T1, canine TRPM8 (Canis lupus familiaris, UniProt Q1A7N1); assay: In Vitro Canine TRPM8 Functional Assay (icilin-induced intracellular Ca2+, FLIPR/FDSS); assay type: cell-based; conditions: for % Inh @ 0.2 μM: 0.2 μM compound; for IC50: icilin at approx. 80% maximal response, eight-point concentration-response
T1 construct: expressed in transfected cells
Protocol: The functional activity of representative compounds of the formula (I) of the present invention was quantified by measuring changes in intracellular calcium concentration using a Ca^2+-sensitive fluorescent dye. The changes in fluorescent signal were monitored by a fluorescence plate reader, either a FLIPR™ (Molecular Devices) or FDSS (Hamamatsu).
HEK293 cells stably expressing canine TRPM8 were routinely grown as monolayers in Dulbecco's minimum essential medium supplemented with 10% FBS, 2 mM L-glutamine, 100 units/mL penicillin, 100 ug/mL streptomycin and 400 μg/mL G418. Cells were maintained in 5% CO2 at 37° C. At 24 hr prior to assay, cells were seeded in black wall, clear-base poly-D-lysine coated 384-well plates (BD Biosciences, NJ, USA) at a density of 5,000 cells per well in culture medium and grown overnight in 5% CO2 at 37° C. On assay day, growth media was removed, and cells were loaded with Calcium 3 Dye (Molecular Devices) for 35 min at 37° C., under 5% CO2 and then incubated for 25 min at room temperature and atmosphere. Subsequently, cells were tested for agonist-induced increases in intracellular Ca^2+ levels using FLIPR™ or FDSS. Cells were treated with compounds of the formula (I) at varying concentrations and intracellular […] was measured for 5 min prior to the addition of icilin to all wells to achieve a final concentration that produces approximately an 80% maximal response.
Basal FI was subtracted prior to normalizing data to percent of maximal response. Curves were generated using the average of quadruplicate wells for each data point using nonlinear regression of either sigmoidal dose response or sigmoidal dose response (variable slope). Finally, the EC50 and IC50 values were calculated with the best-fit curve determined by GraphPad Prism

[1] = test system: icilin-induced "wet-dog" shakes; assay: Inhibition of icilin-induced "wet-dog" shakes in rats; assay type: in vivo; conditions: male Sprague Dawley rats; 10 mg/kg p.o., 60 min pre-icilin; vehicle 10% Solutol (0.5% HPMC for 47); [1-(test compound WDS count/vehicle WDS count)]x100
Protocol: Male Sprague Dawley rats ([…], Charles River Labs, n=6-9/treatment) were used to evaluate the ability of test compounds to block icilin-induced “wet-dog” shakes (WDS). The test compound was administered in an appropriate vehicle, such as hydroxypropyl-β-cyclodextrin (HP-β-CD), methocellulose, 10% Solutol, H2O or the like, by the appropriate route (e.g., i.p. or p.o.), 30-60 min before icilin. Icilin was then administered in PEG-400 or 10% solutol/H2O, at 1.0 or 3.0 mg/kg, i.p. and spontaneous “wet-dog” shakes were counted 10-20 min post-icilin.
Representative compounds of the present invention were tested at 10 mg/kg p.o. and 60 min pre-incilin, according to the procedure as described above. Results, as listed in Table 7 below, are presented as a percent inhibition of shakes, which was calculated as [1−(test compound WDS count/vehicle WDS count)]×100.

[2] = HEK293 cells stably expressing canine TRPM8, icilin activation, 0.2 µM
[3] = HEK293, 0.2 μM compound, HEK293 cells stably expressing canine TRPM8, icilin activation, read-out: % Inh @ 0.2 μM
[4] = HEK293 cells stably expressing canine TRPM8, read-out: IC50

T1 sequence (Q1A7N1 1-1104): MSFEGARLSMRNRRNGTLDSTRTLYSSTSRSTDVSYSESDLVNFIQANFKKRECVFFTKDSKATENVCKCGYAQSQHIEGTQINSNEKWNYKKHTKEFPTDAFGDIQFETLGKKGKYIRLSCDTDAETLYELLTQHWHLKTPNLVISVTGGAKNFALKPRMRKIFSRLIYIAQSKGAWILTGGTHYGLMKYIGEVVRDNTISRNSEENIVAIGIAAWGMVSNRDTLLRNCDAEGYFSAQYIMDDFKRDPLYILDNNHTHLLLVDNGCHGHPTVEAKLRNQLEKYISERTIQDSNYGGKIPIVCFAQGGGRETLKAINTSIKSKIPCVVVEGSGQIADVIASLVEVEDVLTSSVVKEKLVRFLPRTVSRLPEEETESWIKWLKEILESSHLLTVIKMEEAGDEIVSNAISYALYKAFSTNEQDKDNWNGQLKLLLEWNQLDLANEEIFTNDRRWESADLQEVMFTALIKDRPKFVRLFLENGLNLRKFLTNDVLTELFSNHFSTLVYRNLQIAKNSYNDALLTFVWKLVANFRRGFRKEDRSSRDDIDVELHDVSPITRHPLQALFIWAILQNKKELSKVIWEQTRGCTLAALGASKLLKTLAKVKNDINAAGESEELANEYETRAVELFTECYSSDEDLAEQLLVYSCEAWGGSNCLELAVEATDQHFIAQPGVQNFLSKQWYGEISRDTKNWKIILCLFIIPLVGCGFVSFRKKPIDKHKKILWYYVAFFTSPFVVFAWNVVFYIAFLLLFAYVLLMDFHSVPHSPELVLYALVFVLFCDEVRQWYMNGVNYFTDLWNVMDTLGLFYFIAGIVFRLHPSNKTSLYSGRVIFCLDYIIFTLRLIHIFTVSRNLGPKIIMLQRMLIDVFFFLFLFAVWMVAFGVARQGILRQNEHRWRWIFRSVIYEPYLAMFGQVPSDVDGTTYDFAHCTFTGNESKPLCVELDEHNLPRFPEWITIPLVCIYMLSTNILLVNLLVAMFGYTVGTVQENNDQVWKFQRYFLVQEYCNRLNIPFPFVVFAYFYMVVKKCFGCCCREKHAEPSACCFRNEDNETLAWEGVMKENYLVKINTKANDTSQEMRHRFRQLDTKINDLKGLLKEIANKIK

Cn1c(N(Cc2ccc(OC(F)(F)F)cc2)S(=O)(=O)c2ccccc2)nc2ccccc21 [Compound #6]
% Inh @ 0.2 μM (canine TRPM8; [2]): 100%
inhibition at 0.2 µM (canine TRPM8; [3]): 101%
IC50 (canine TRPM8; [4]): 1 nM and 2 nM
% Inhibition of shakes [1]: 20.2%

Cn1c(N(Cc2ccc(F)c(C(F)(F)F)c2)S(=O)(=O)c2ccccc2)nc2ccccc21 [Compound #15, N-(4-Fluoro-3-trifluoromethyl-benzyl)-N-(1-methyl-1H-benzimidazol-2-yl)-benzenesulfonamide]
% Inh @ 0.2 μM (canine TRPM8; [2]): 98%
inhibition at 0.2 µM (canine TRPM8; [3]): 102%
IC50 (canine TRPM8; [4]): 1 nM and 4 nM
% Inhibition of shakes [1]: 27.7%

CCn1c(N(Cc2ccc(C(F)(F)F)cc2)S(=O)(=O)c2ccccc2)nc2cc(F)ccc21 [Compound #47, N-(1-Ethyl-5-fluoro-1H-benzimidazol-2-yl)-N-(4-trifluoromethyl-benzyl)-benzenesulfonamide]
inhibition at 0.2 µM (canine TRPM8; HEK293, read-out: % Inh @ 0.2 μM): 100%
IC50 (canine TRPM8; IC50, HEK293 cells stably expressing canine TRPM8): 6 nM
% Inhibition of shakes [1]: 36%

Cn1c(N(Cc2ccc(F)c(Cl)c2)S(=O)(=O)c2ccccc2)nc2ccccc21 [compound 20]
inhibition at 0.2 µM (canine TRPM8; [3]): 101%
IC50 (canine TRPM8; [4]): 1 nM
% Inhibition of shakes [1]: 32.6%

O=S(=O)(c1ccccc1)N(Cc1ccc(C(F)(F)F)cc1)c1nc2ccccc2n1CC(F)(F)F [compound 54]
% Inh @ 0.2 μM (canine TRPM8; HEK293 cells stably expressing canine TRPM8, icilin activation): 85, 85%
inhibition at 0.2 µM (canine TRPM8; [3]): 85%
IC50 (canine TRPM8; [4]): 15 nM and 75 nM
% Inhibition of shakes [1]: 2.4%

Cc1ccc2nc(N(Cc3ccc(OC(F)(F)F)cc3)S(=O)(=O)c3ccccc3)n(C)c2c1 [compound 66]
inhibition at 0.2 µM (canine TRPM8; [3]): 98%
IC50 (canine TRPM8; [4]): 21 nM

Cc1ccc2nc(N(Cc3ccc(C(F)(F)F)cc3)S(=O)(=O)c3ccccc3)n(C)c2c1 [compound 68]
inhibition at 0.2 µM (canine TRPM8; [3]): 99%
IC50 (canine TRPM8; [4]): 24 nM

O=S(=O)(c1ccccc1)N(Cc1ccc(OC(F)(F)F)cc1)c1nc2ccccc2n1CC1CC1 [compound 69]
inhibition at 0.2 µM (canine TRPM8; [3]): 101%
IC50 (canine TRPM8; [4]): 26 nM

O=S(=O)(c1ccccc1)N(Cc1ccc(C(F)(F)F)cc1)c1nc2ccccc2n1CC1CC1 [compound 70]
inhibition at 0.2 µM (canine TRPM8; [3]): 101%
IC50 (canine TRPM8; [4]): 35 nM

Cc1cc2nc(N(Cc3ccc(OC(F)(F)F)cc3)S(=O)(=O)c3ccccc3)n(C)c2cc1C [compound 74]
inhibition at 0.2 µM (canine TRPM8; [3]): 99%
IC50 (canine TRPM8; [4]): 19 nM

Cc1cc2nc(N(Cc3ccc(C(F)(F)F)c(F)c3)S(=O)(=O)c3ccccc3)n(C)c2cc1C [compound 75]
inhibition at 0.2 µM (canine TRPM8; [3]): 101%
IC50 (canine TRPM8; [4]): 28 nM

Cc1cccc2c1nc(N(Cc1ccc(C(F)(F)F)c(F)c1)S(=O)(=O)c1ccccc1)n2C [compound 76]
inhibition at 0.2 µM (canine TRPM8; [3]): 101%
IC50 (canine TRPM8; [4]): 9.4 nM
